Source: patent US20240270762A1, “PENICILLIN-BINDING PROTEIN INHIBITORS” (priority 2021, published 2024)
≈ marks a conversion by molar mass, not a printed value.

Assays:
[1] = biological target: T1, PBP3 from Pseudomonas aeruginosa (PAO1) (Pseudomonas aeruginosa, UniProt G3XD46); assay: Bocillin-FL fluorescence polarization competition binding, P. aeruginosa PBP3; conditions: Binding affinity to P. aeruginosa PBP3; fluorescence polarization competition binding assay using Bocillin-FL; read-out: P. aeruginosa PBP3 Potency
T1 construct: made in house
Procedure, shortened: (§1)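 Purified PBPs pre-incubated with inhibitor (E. coli PBP3 1.5 μM, 30 min; P. aeruginosa PBP3 0.75 μM, A. baumannii PBP1a 1 μM and PBP3 0.2 μM, 15 min), then Bocillin-FL 0.1 μM (0.05 μM for PBP1a) added; FP read up to 60 min. EC50 = concentration halving bound Bocillin-FL.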

[2] = biological target: T2, PBP3 from Acinetobacter baumannii (ATCC 19606) (Acinetobacter baumannii, UniProt A0ABX6CK25); assay: Bocillin-FL fluorescence polarization competition binding, A. baumannii PBP3; conditions: fluorescence polarization competition binding assay using Bocillin-FL; read-out: A. baumannii PBP3 Potency
T2 sequence (A0ABX6CK25 64-610): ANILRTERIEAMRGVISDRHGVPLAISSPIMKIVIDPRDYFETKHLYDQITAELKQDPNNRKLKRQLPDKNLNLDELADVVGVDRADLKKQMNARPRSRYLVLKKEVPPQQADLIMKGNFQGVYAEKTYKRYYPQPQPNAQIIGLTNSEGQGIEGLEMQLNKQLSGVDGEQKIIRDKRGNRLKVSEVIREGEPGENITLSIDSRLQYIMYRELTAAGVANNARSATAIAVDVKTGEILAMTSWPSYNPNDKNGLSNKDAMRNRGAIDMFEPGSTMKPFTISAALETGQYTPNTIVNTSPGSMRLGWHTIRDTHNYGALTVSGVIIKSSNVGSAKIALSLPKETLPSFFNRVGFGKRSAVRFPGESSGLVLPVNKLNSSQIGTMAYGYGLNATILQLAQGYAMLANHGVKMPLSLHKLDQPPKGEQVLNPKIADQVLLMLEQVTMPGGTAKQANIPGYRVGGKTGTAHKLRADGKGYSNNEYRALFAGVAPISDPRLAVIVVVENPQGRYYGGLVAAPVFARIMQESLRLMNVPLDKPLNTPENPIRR
Procedure, shortened: as §1

A. baumannii ATCC 17978 = assay: microbe, parasite or virus in culture; type: cell-based; conditions: Acinetobacter baumannii, ATCC17978, read-out: MIC, A. baumannii ATCC 17978
A. baumannii ATCC 19606 = assay: microbe, parasite or virus in culture; type: cell-based; conditions: Acinetobacter baumannii, ATCC19606, read-out: MIC, A. baumannii ATCC 19606
P. aeruginosa CDC-0054 = assay: microbe, parasite or virus in culture; type: cell-based; conditions: Pseudomonas aeruginosa, CDC0054, read-out: Minimum inhibitory concentration, P. aeruginosa CDC-0054
P. aeruginosa CDC-0090 = assay: microbe, parasite or virus in culture; type: cell-based; conditions: Pseudomonas aeruginosa, CDC0090, read-out: Minimum inhibitory concentration, P. aeruginosa CDC-0090
P. aeruginosa CDC-0095 = assay: microbe, parasite or virus in culture; type: cell-based; conditions: Pseudomonas aeruginosa, CDC0095, read-out: Minimum inhibitory concentration, P. aeruginosa CDC-0095
A. baumannii 1258916 = assay: microbe, parasite or virus in culture; type: cell-based, Acinetobacter baumannii; conditions: Acinetobacter baumannii, 1258916, read-out: MIC, A. baumannii 1258916

T1 sequence (G3XD46 whole entry): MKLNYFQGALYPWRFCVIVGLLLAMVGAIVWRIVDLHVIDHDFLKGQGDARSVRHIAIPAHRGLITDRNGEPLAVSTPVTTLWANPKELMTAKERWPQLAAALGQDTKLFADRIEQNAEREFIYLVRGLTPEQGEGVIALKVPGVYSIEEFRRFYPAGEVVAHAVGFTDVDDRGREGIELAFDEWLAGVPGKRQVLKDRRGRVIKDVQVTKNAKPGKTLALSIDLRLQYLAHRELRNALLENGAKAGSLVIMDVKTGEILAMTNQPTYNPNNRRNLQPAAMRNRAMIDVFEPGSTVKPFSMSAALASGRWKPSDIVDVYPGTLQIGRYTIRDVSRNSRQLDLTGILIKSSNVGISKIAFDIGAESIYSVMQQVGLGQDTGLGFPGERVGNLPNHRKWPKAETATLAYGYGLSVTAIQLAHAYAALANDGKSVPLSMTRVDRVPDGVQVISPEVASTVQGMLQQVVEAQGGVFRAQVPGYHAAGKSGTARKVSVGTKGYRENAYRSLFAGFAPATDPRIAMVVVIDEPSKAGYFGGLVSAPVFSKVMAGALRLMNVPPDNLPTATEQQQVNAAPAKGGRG

Compound | IC50 [1] | IC50 [2] | MIC (A. baumannii ATCC 17978) | MIC (A. baumannii ATCC 19606) | MIC (P. aeruginosa CDC-0054) | MIC (P. aeruginosa CDC-0090) | MIC (P. aeruginosa CDC-0095) | MIC (A. baumannii 1258916)
O=C(O)c1c(F)ccc2c1OB(O)[C@@H](NC(=O)[C@H](NC(=O)N1CCN(C3CCN(C(=O)c4cc(O)ccc4F)CC3)C1=O)c1cc(F)c(O)c(O)c1Cl)C2 (single isomer, unassigned) [Example 433] | < 10 µM | < 10 µM | < 1 µg/mL | < 1 µg/mL | < 1 µg/mL | < 1 µg/mL | < 1 µg/mL | < 1 µg/mL
O=C(O)c1c(F)ccc2c1OB(O)[C@@H](NC(=O)[C@H](NC(=O)N1CCN(C3CCN(C(=O)c4cc(O)ccc4Cl)CC3)C1=O)c1cc(F)c(O)c(O)c1Cl)C2 (single isomer, unassigned) [Example 434] | < 10 µM | < 10 µM | < 1 µg/mL | < 1 µg/mL | < 1 µg/mL | < 1 µg/mL | < 1 µg/mL | < 1 µg/mL
O=C(O)c1c(F)ccc2c1OB(O)[C@@H](NC(=O)[C@H](NC(=O)N1CCN(C3CCN(C(=O)c4ccc(F)c(O)c4)CC3)C1=O)c1cc(F)c(O)c(O)c1Cl)C2 (single isomer, unassigned) [Example 435] | < 10 µM | 10 to 50 µM | < 1 µg/mL | < 1 µg/mL | < 1 µg/mL | < 1 µg/mL | < 1 µg/mL | < 1 µg/mL
O=C(O)c1c(F)ccc2c1OB(O)[C@@H](NC(=O)[C@H](NC(=O)N1CCN(C3CCN(C(=O)c4cc(O)cc(F)c4)CC3)C1=O)c1cc(F)c(O)c(O)c1Cl)C2 (single isomer, unassigned) [Example 436] | < 10 µM | < 10 µM | < 1 µg/mL | < 1 µg/mL | < 1 µg/mL | < 1 µg/mL | < 1 µg/mL | < 1 µg/mL
O=C(O)c1c(F)ccc2c1OB(O)[C@@H](NC(=O)[C@H](NC(=O)N1CCN(C3CCN(C(=O)c4ccc(F)c(O)c4F)CC3)C1=O)c1cc(F)c(O)c(O)c1Cl)C2 (single isomer, unassigned) [Example 437] | < 10 µM | < 10 µM | < 1 µg/mL | < 1 µg/mL | < 1 µg/mL | < 1 µg/mL | < 1 µg/mL | < 1 µg/mL
O=C(O)c1c(F)ccc2c1OB(O)[C@@H](NC(=O)[C@H](NC(=O)N1CCN(C3CCN(C(=O)c4c(F)ccc(O)c4F)CC3)C1=O)c1cc(F)c(O)c(O)c1Cl)C2 (single isomer, unassigned) [Example 439] | < 10 µM | < 10 µM | < 1 µg/mL | < 1 µg/mL | 2 to 4 µg/mL (≈ 2.52 to 5.04 µM) | < 1 µg/mL | 2 to 4 µg/mL (≈ 2.52 to 5.04 µM) | < 1 µg/mL
O=C(O)c1c(F)ccc2c1OB(O)[C@@H](NC(=O)[C@H](NC(=O)N1CCN(C3CCN(C(=O)c4c(F)ccc(O)c4Cl)CC3)C1=O)c1cc(F)c(O)c(O)c1Cl)C2 (single isomer, unassigned) [Example 440] | < 10 µM | < 10 µM | < 1 µg/mL | < 1 µg/mL | < 1 µg/mL | < 1 µg/mL | < 1 µg/mL | < 1 µg/mL
O=C(O)c1c(F)ccc2c1OB(O)[C@@H](NC(=O)[C@H](NC(=O)N1CCN(C3CCN(C(=O)c4cc(F)c(F)c(O)c4F)CC3)C1=O)c1cc(F)c(O)c(O)c1Cl)C2 (single isomer, unassigned) [Example 441] | < 10 µM | < 10 µM | < 1 µg/mL | < 1 µg/mL | < 1 µg/mL | < 1 µg/mL | < 1 µg/mL | < 1 µg/mL
O=C(O)c1c(F)ccc2c1OB(O)[C@@H](NC(=O)[C@H](NC(=O)N1CCN(C3CCN(C(=O)c4cc(O)cc(O)c4)CC3)C1=O)c1cc(F)c(O)c(O)c1Cl)C2 (single isomer, unassigned) [Example 442] | < 10 µM | < 10 µM | < 1 µg/mL | < 1 µg/mL | < 1 µg/mL | < 1 µg/mL | < 1 µg/mL | < 1 µg/mL
O=C(O)c1c(F)ccc2c1OB(O)[C@@H](NC(=O)[C@H](NC(=O)N1CCN(C3CCN(C(=O)c4cc(O)c(F)c(O)c4)CC3)C1=O)c1cc(F)c(O)c(O)c1Cl)C2 (single isomer, unassigned) [Example 443] | < 10 µM | < 10 µM | < 1 µg/mL | < 1 µg/mL | < 1 µg/mL | < 1 µg/mL | < 1 µg/mL | < 1 µg/mL
O=C(O)c1c(F)ccc2c1OB(O)[C@@H](NC(=O)[C@H](NC(=O)N1CCN(C3CCN(C(=O)c4cc(O)c(F)c(O)c4F)CC3)C1=O)c1cc(F)c(O)c(O)c1Cl)C2 (single isomer, unassigned) [Example 444] | < 10 µM | < 10 µM | < 1 µg/mL | < 1 µg/mL | < 1 µg/mL | < 1 µg/mL | < 1 µg/mL | < 1 µg/mL
O=C(O)c1c(F)ccc2c1OB(O)[C@@H](NC(=O)[C@H](NC(=O)N1CCN(C3CCN(C(=O)Nc4cccc(O)c4F)CC3)C1=O)c1cc(F)c(O)c(O)c1Cl)C2 (single isomer, unassigned) [Example 446] | < 10 µM | < 10 µM | < 1 µg/mL | < 1 µg/mL | < 1 µg/mL | < 1 µg/mL | < 1 µg/mL | < 1 µg/mL
O=C(O)c1c(F)ccc2c1OB(O)[C@@H](NC(=O)[C@H](NC(=O)N1CCN(C3CCN(C(=O)Nc4cc(O)ccc4Cl)CC3)C1=O)c1cc(F)c(O)c(O)c1Cl)C2 (single isomer, unassigned) [Example 448] | < 10 µM | < 10 µM | < 1 µg/mL | < 1 µg/mL | < 1 µg/mL | < 1 µg/mL | < 1 µg/mL | < 1 µg/mL
O=C(O)c1c(F)ccc2c1OB(O)[C@@H](NC(=O)[C@H](NC(=O)N1CCN(C3CCN(C(=O)Nc4ccc(F)c(O)c4)CC3)C1=O)c1cc(F)c(O)c(O)c1Cl)C2 (single isomer, unassigned) [Example 449] | < 10 µM | < 10 µM | < 1 µg/mL | < 1 µg/mL | < 1 µg/mL | < 1 µg/mL | < 1 µg/mL | < 1 µg/mL
O=C(O)c1c(F)ccc2c1OB(O)[C@@H](NC(=O)[C@H](NC(=O)N1CCN(C3CCN(C(=O)Nc4cc(O)cc(F)c4)CC3)C1=O)c1cc(F)c(O)c(O)c1Cl)C2 (single isomer, unassigned) [Example 450] | < 10 µM | < 10 µM | < 1 µg/mL | < 1 µg/mL | < 1 µg/mL | < 1 µg/mL | < 1 µg/mL | < 1 µg/mL
O=C(O)c1c(F)ccc2c1OB(O)[C@@H](NC(=O)[C@H](NC(=O)N1CCN(C3CCN(C(=O)Nc4cc(O)ccc4F)CC3)C1=O)c1cc(F)c(O)c(O)c1Cl)C2 (single isomer, unassigned) [Example 451] | < 10 µM | < 10 µM | < 1 µg/mL | < 1 µg/mL | < 1 µg/mL | < 1 µg/mL | < 1 µg/mL | < 1 µg/mL
O=C(O)c1c(F)ccc2c1OB(O)[C@@H](NC(=O)[C@H](NC(=O)N1CCN(C3CCN(C(=O)Nc4c(F)ccc(O)c4F)CC3)C1=O)c1cc(F)c(O)c(O)c1Cl)C2 (single isomer, unassigned) [Example 454] | < 10 µM | < 10 µM | < 1 µg/mL | < 1 µg/mL | < 1 µg/mL | 2 to 4 µg/mL (≈ 2.47 to 4.95 µM) | 2 to 4 µg/mL (≈ 2.47 to 4.95 µM) | < 1 µg/mL
